{
  "source": "patent US20090203658A1",
  "about": "“NEUROACTIVE STEROID COMPOSITIONS AND METHODS OF USE THEREFOR” (Duke University, priority 2007, published 2009)",
  "key": {"[1]": {"conditions": "DHEA administration in humans (50 mg); cited from earlier work"}, "healthy male smokers": {"test_system": "healthy male smokers", "experiment": "Pilot study of one-time DHEA or PG after overnight abstinence from cigarettes: craving measures", "format": "in vivo, human", "conditions": "one-time 400 mg; vs. placebo", "procedure": "Elaborating, a pilot study is provided herein, which involves administering one-time DHEA (400 mg), PG (400 mg) or placebo to healthy male smokers following overnight abstinence from cigarettes. […] Thus, neuroactive steroids can be candidate therapeutic molecules for smoking cessation."}, "brain": {"test_system": "brain", "conditions": "in vivo; cited from earlier work"}, "[2]": {"conditions": "single dose of PG 175 mg; over the course of 5-8 hours; cited from earlier work"}, "[3]": {"test_system": "subjects with schizophrenia or schizoaffective disorder"}, "[4]": {"test_system": "subjects with schizophrenia or schizoaffective disorder", "experiment": "Randomized placebo-controlled double-blind trial of adjunctive PG: negative and cognitive symptoms (SANS, BACS, MATRICS)", "format": "in vivo, human", "source_text": "Of 21 subjects randomized, 18 completed at least four weeks of treatment (n=9 per group). […] Increases in serum PG levels were positively correlated with cognitive improvement in the PG group, predicting both BACS (r=0.79, n=9, p=0.02; see FIG. 3A) and MATRICS (r=0.70, n=9, p=0.05; see FIG. 3B) composite scores at eight weeks. The mean BACS z-score increase for the PG group was 0.60 (vs. 0.22 for the placebo group). BACS and MATRICS assessments were correlated (r=0.74, p<0.0001)."}, "[5]": {"experiment": "Serum drug levels after chronic lithium or valproate in chow", "conditions": "chow 1.2 then 2.4 g Li2CO3/kg, four weeks; measured by atomic absorption", "from_the_text": "Lithium and Valproate Administration. […] Animals were fed with control rodent chow or chow containing a low dose of lithium (1.2 g Li2CO3/kg) or valproate (10 g/kg) for one week to allow the animals to slowly acclimate to the drug, and were then fed with chow containing a full dose of lithium (2.4 g Li2CO3/kg) or valproate (20 g/kg) for three weeks. On the last day of the treatment, animals were sacrificed, and trunk blood was collected to measure lithium and valproate levels in the serum."}, "rat frontal cortex": {"test_system": "rat frontal cortex", "experiment": "Neuroactive steroid levels in frontal cortex after chronic lithium or valproate (GC/MS preceded by HPLC)", "format": "in vivo, Male Wistar Kyoto rats", "conditions": "chronic administration four weeks, n=9", "procedure": "Lithium and Valproate Administration.\nNS analyses in rat and mouse frontal cortex were performed as described in Marx et al., 2006a; Marx et al., 2006b; and Marx et al., 2006c. Rodent brain tissue was homogenized in 5 volumes of distilled water containing about 2200 cpm (4400 dpm/injection) of tritiated NS (Perkin Elmer, Waltham, Mass.) to detect the HPLC fraction containing the NS of interest. Deuterated ALLO (D4-ALLO, 400 pg) and deuterated PG (D4-PG, 400 pg) were used as internal standards. Supernatants were extracted three times with three volumes of ethyl acetate and dried under nitrogen prior to HPLC purification. […] The limit of NS detection with this method was 2 pg for ALLO and 10 pg for PG. Mean intra-assay coefficients of variation were 3.9% for ALLO and 3.0% for PG.\nStatistical Analysis. For rat experiments utilizing chronic lithium and valproate administration, data were analyzed by ANOVA with post-hoc Dunnett tests. Data from Bcl-2 knockout mouse experiments were analyzed by unpaired t-tests.\nTo that end, NS levels (ALLO and PG) were determined in frontal cortex by negative ion chemical ionization gas chromatography/mass spectrometry in male Wistar Kyoto rats treated chronically with lithium, valproate, or vehicle. NS were also investigated in heterozygous Bcl-2 knockout mice."}, "[6]": {"conditions": "change from baseline (Hillside AE Form), n = 9"}, "[7]": {"conditions": "change from baseline (Hillside AE Form), n = 9, mild in all subjects"}},
  "note": "Marks after values point to notes of the source that are not given here.",
  "data": [
    {"smiles": "C[C@]12CC[C@H](O)CC1=CC[C@@H]1[C@@H]2CC[C@]2(C)C(=O)CC[C@@H]12", "note": "[DHEA, dehydroepiandrosterone]", "values": [
      {"measurement": "increase of ALLO", "setting": "[1]", "value": "three-fold"},
      {"measurement": "craving measures following overnight smoking cessation", "setting": "healthy male smokers", "value": "attenuates craving measures"}
    ]},
    {"smiles": "CNCCC(Oc1ccc(C(F)(F)F)cc1)c1ccccc1", "note": "(stereo not shown) [Fluoxetine]", "values": [
      {"measurement": "effect on brain ALLO levels and PG levels", "setting": "brain", "value": "elevates"}
    ]},
    {"smiles": "CC(=O)[C@H]1CC[C@H]2[C@@H]3CC=C4C[C@@H](O)CC[C@]4(C)[C@H]3CC[C@]12C", "note": "[PG, pregnenolone]", "values": [
      {"measurement": "change of serum PG levels", "setting": "[2]", "value": "approximately doubled"},
      {"measurement": "AIMS, Barnes Akathisia Scale, Simpson-Angus Scale, blood pressure, pulse, or weight", "setting": "[3]; PG administration", "value": "did not result in a significant change"},
      {"measurement": "tolerability", "setting": "[3]; PG group, n=9", "value": "well-tolerated"},
      {"measurement": "glucose level, average post-treatment", "setting": "[3]; average baseline 117.9 mg/dl", "value": 119.0, "unit": "mg/dL"},
      {"measurement": "cholesterol, average post-treatment", "setting": "[3]; average baseline 185.8 mg/dl", "value": 164.6, "unit": "mg/dL"},
      {"measurement": "QTc intervals on EKG", "setting": "[3]; baseline (visit 1) vs. week 10 (visit 6)", "value": "did not negatively impact"},
      {"measurement": "Akathisia", "setting": "[3]; [6]", "value": "0 N (%)"},
      {"measurement": "All Other Side Effects", "setting": "[3]; [6]", "value": "0 N (%)"},
      {"measurement": "Blurred Vision", "setting": "[3]; [6]", "value": "0 N (%)"},
      {"measurement": "Diarrhea", "setting": "[3]; [6]", "value": "0 N (%)"},
      {"measurement": "Drowsiness", "setting": "[3]; [6]", "value": "0 N (%)"},
      {"measurement": "Excitation/Agitation", "setting": "[3]; [6]", "value": "0 N (%)"},
      {"measurement": "Headache", "setting": "[3]; [6]", "value": "0 N (%)"},
      {"measurement": "Impaired Sexual Performance", "setting": "[3]; [6]", "value": "0 N (%)"},
      {"measurement": "Insomnia", "setting": "[3]; [6]", "value": "0 N (%)"},
      {"measurement": "Joint Pain/Stiffness", "setting": "[3]; [6]", "value": "0 N (%)"},
      {"measurement": "Malaise", "setting": "[3]; [6]", "value": "0 N (%)"},
      {"measurement": "Nasal Congestion", "setting": "[3]; [6]", "value": "0 N (%)"},
      {"measurement": "Peripheral Edema", "setting": "[3]; [6]", "value": "0 N (%)"},
      {"measurement": "Rigidity", "setting": "[3]; [6]", "value": "0 N (%)"},
      {"measurement": "Sweating", "setting": "[3]; [6]", "value": "0 N (%)"},
      {"measurement": "Tremor", "setting": "[3]; [6]", "value": "0 N (%)"},
      {"measurement": "Hypertension", "setting": "[3]; change from baseline (Hillside AE Form), n = 9, mild (<145/90)", "value": "1 (11%)^b N (%)"},
      {"measurement": "Cold Extremities", "setting": "[3]; [7]", "value": "1 (11%)^a N (%)"},
      {"measurement": "Decreased Interest in Sex", "setting": "[3]; [7]", "value": "1 (11%)^a N (%)"},
      {"measurement": "Dry mouth", "setting": "[3]; [7]", "value": "1 (11%)^a N (%)"},
      {"measurement": "Muscle Pain/Stiffness", "setting": "[3]; [7]", "value": "1 (11%)^a N (%)"},
      {"measurement": "Restlessness", "setting": "[3]; [7]", "value": "2 (22%)^a N (%)"},
      {"measurement": "Disorientation (to date, address, mayor, or MD name)", "setting": "[3]; change from baseline pre-randomization (Hillside AE Form), n = 9, mild in all subjects", "value": "2 (22%)^a N (%)"},
      {"measurement": "increase in serum ALLO levels after PG administration", "setting": "eight weeks of PG vs. baseline, schizophrenia subjects", "value": "over 5 fold"},
      {"measurement": "PGS levels after PG administration", "setting": "subjects with schizophrenia, baseline vs. 10 weeks", "value": "significantly increased"},
      {"measurement": "mean change in SANS scores (improvement)", "setting": "[4]; PG 50 to 250 mg BID for 8 weeks added to second generation antipsychotics, n=9, placebo 2.33, p=0.05", "value": 10.38},
      {"measurement": "mean BACS z-score increase", "setting": "[4]; PG group, placebo group 0.22", "value": 0.60},
      {"measurement": "craving measures following overnight smoking cessation", "setting": "healthy male smokers", "value": "attenuates craving measures"}
    ]},
    {"smiles": "[Li]", "note": "[lithium]", "values": [
      {"measurement": "serum lithium level", "setting": "[5]", "value": "0.74 ±0.31", "unit": "mEq/l"},
      {"measurement": "mean ALLO levels in rat frontal cortex", "setting": "rat frontal cortex; 0.75 SEM, vehicle 0.71 ng/g, post-hoc Dunnett p<0.05", "value": 2.42, "unit": "ng/g"},
      {"measurement": "mean PG levels in rat frontal cortex", "setting": "rat frontal cortex; ±2.95 SEM, vehicle 3.37 ng/g, post-hoc Dunnett p=0.09", "value": 8.19, "unit": "ng/g"}
    ]}
  ]
}
